Assay results: patent US20090305993A1, “METHODS AND COMPOSITION FOR THE TREATMENT OF GASTROINTESTINAL DISORDERS” (IRONWOOD PHARMACEUTICALS, INC., priority 2006, published 2009)
Where a SMILES comes first, the peptide text is derived from it. Bridges are numbered along the chain shown (N, C = ends).

Test system: WT and GC-C KO mice
Assay: TNBS visceral hypersensitivity model in WT and GC-C KO mice
Type: in vivo, mouse
Details: oral 0.01 μg/kg, FIG. 7d
Description: TNBS induced visceral hypersensitivity was assessed in WT and GC-C KO mice. Two groups (WT and GC-C KO) of male mice (22-25 g) were surgically prepared for electromyographic (EMG) recordings. Three electrodes were implanted in the striated muscles of the abdomen for EMG recording of abdominal contractions. Colorectal distension (CRD) was performed with a balloon inflated by 10s steps of 0.02 ml from 0 to 0.12 ml. Under basal conditions mice were submitted to control CRD (time 0) followed by oral administration of SEQ ID NO:3 (0.01 and 0.3 μg/kg) or vehicle only (distilled water, 1 ml) at 3 hours. One hour post dosing the CRD procedure was repeated. Abdominal EMG contractile response to colorectal distension in basal conditions in both WT and GC-C KO mice (12-14 mice per group) was determined in the absence of vehicle and SEQ ID NO:3, and the mean+/−standard error of the mean (SEM) is graphically depicted in FIG. 7c.
For TNBS induced visceral hypersensitivity conditions, mice were submitted to control CRD (time 0) and TNBS (20 mg/kg) was administered at 3 days. […] The effect of SEQ ID NO:3 ([…]) on abdominal response to colorectal distension after TNBS in WT and GC-C KO mice (12-14 per group) at a volume distension of […] was determined and the mean+/−standard error of the mean (SEM) is graphically depicted in FIG. 7d.

Compound: C[C@@H]1NC(=O)[C@@H]2CCCN2C(=O)[C@H](CC(N)=O)NC(=O)[C@@H]2CSSC[C@H](N)C(=O)N[C@H]3CSSC[C@H](NC1=O)C(=O)N[C@@H]([C@@H](C)O)C(=O)NCC(=O)N[C@H](C(=O)N[C@@H](Cc1ccc(O)cc1)C(=O)O)CSSC[C@H](NC(=O)[C@H](Cc1ccc(O)cc1)NC(=O)[C@H](CCC(=O)O)NC3=O)C(=O)N2 [SEQ ID NO:3] (H-CCEYCCNPACTGCY-OH; disulfide 1-6, 2-10, 5-13; N-terminus and C-terminus assumed)
- TNBS induced hypersensitivity to CRD (GC-C KO mice): A similar effect was not observed
- TNBS induced hypersensitivity to CRD (WT mice): reduces the TNBS induced hypersensitivity to CRD
